Assay results from patent US20260138969A1 (Korea Research Institute of Chemical Technology, priority 2023, published 2026).

Experiments:
[1] = test system: MPTP-induced PD mouse model; experiment: MPTP-induced PD mouse model: dopamine by LC-MS/MS; type: in vivo; conditions: vs MPTP alone group
Method: (§1) Mice at 7 weeks of age were divided into 7 groups as shown in Table 9 below to generate an acute MPTP model and proceed with drug administration: control group+vehicle (G1), MPTP+vehicle (G2), MPTP+Nilotinib 40 mg/kg (G3), MPTP+Example 3 2 mg/kg (G4), MPTP+Example 3 10 mg/kg (G5), MPTP+Example 3 50 mg/kg (G6), and MPTP+Example 2 50 mg/kg (G7). The test drug was administered orally (PO) at 10 ml/kg once daily (QD) from Day 1 to Day 7. The acute MPTP model will be performed at 2-hour intervals in all groups except the control group. […] was administered as intraperitoneal (IP) injection for 4 doses. The control group was given the same amount of 0.9% saline. The Pole test was performed on day 4 (after training on day 2 and day 3). On day 7, all mice were euthanized, and their brains were harvested.
The amount of dopamine was measured by LC-MS/MS analysis using Agilent 1290 (LC) and SCIEX QTARP 6500+ (QQQ) for the striatum and substantia nigra of the extracted brain tissue.

[2] = test system: MPTP-induced PD mouse model; experiment: MPTP-induced PD mouse model: TH staining of striatum and substantia nigra; type: in vivo; conditions: for TH levels in the striatum / TH levels in the substantia nigra: vs control group (G1); for TH levels in substantia nigra / TH levels in striatum: PO QD Day 1-7, Example 3 2/10/50 mg/kg, Example 2 50 mg/kg, vs MPTP group G2; for TH levels in striatum: Nilotinib 40 mg/kg
Method: as §1
Mice were euthanized with Zoletil administration for collection of tissue samples for staining and analysis of histological sections. Blood was collected from the heart of the mouse and then the residual blood was perfused with phosphate-buffered saline (PBS). For half of the mice (n=6/group), the brain was incised into the striatum, substantia nigra, and the rest of the brain, flash-frozen, and stored at −80° C. The remaining mice (n=6/group) had their brains isolated and immobilized in 4% paraformaldehyde for 24 hours at 4° C., followed by 30% sucrose in phosphate-buffered saline (PBS) containing 0.02% sodium azide and stored at 4° C. for 3 days. Immunohistochemical sections were performed on brain samples embedded with optimal cutting temperature (OCT) compounds. Samples were sectioned to a thickness of 20 μm using Leica CM1950 (Leica Microsystems, Germany) and stored at 4° C. in a preservation solution until staining with antibodies.
After staining the striatum and substantia nigra of the brain and mounting them on microscopic slides, the slides were washed with PBS containing 0.3% Triton X-100 and peroxidase block for 15 min at room temperature. The slides were washed three times with PBS containing 0.3% Triton X-100 and then blocked at RT (room temperature) for 1 hour in a solution containing PBS, 5% normal goat serum, and 0.3% Triton X-100. Tyrosine hydroxylase antibody was diluted at 1:1000 and incubated overnight at 4° C. The slides were washed with PBS solution and incubated for 1 h at RT with secondary antibody. The slides were washed with PBS solution and the sections were placed in the solution to proceed with the DAB (diaminobenzidine) reaction.
The DAB response was monitored under a microscope for 2 to 3 minutes, and the slides were washed with PBS to stop the DAB response, dehydrated, and mounted using xylene. An Olympus microscope (Olympus, SZ61, BX51) was used to visualize TH stained images. The optical density (OD) value of positive TH staining was measured in the striatum and substantia nigra and analyzed using Image J software.

[3] = MDR-MDCK cell membrane permeability assessment; type: in vitro ADME; conditions: dog; MDCK-MDR1 monolayer, 37° C., 2 hours
Method: (§2) MDCK-MDR1 cells (5×10^5 cells/mL) were incubated on a 24-transwell plate (Corning, NY, USA) for 4 days to measure permeability through a single layer of MDR-MDCK cells. The medium was replaced with a new medium every two days, and the electrical resistance between epithelial tissues (TEER) was measured using a Millicell® ERS-2 Volohmmeter (Merck KGaA, Darmstadt, Germany), and the cell membrane permeability test was performed after confirming that this value was greater than or equal to 300 Ohm.cm^2.
(§3) The apical and basolateral chambers were washed twice each in the order of Hanks' Balanced Salt Solution (HBSS) containing DPBS buffer and 10 mM Hydroxyethyl piperazine Ethane sulfonic acid (HEPES), and in the final washing step, HBSS was filled and maintained at a stable state at 37° C. for 30 minutes. After 30 minutes, the test material was instilled in each chamber and left at 37° C. for 2 hours, and the culture medium of the transferred layer was collected at 30-minute intervals, and the collected amount was supplemented with new HBSS.
(§4) The apparent permeability coefficient (Papp, cm/sec) was calculated using the following formula:
(§5) [formula] • Papp: Apparent permeability • dQ/dt: Permeability of the drug • A: Area of the filter membrane on which the cells are laid • C_0: Initial concentration of the drug
(§6) In addition, the Efflux ratio was calculated as follows: […]

MDR1 = experiment: MDR-MDCK cell membrane permeability assessment; type: in vitro ADME; conditions: dog; MDCK-MDR1 monolayer
Method: as §2, §3, §4, §5, §6

Row | Structure (SMILES) | dopamine concentration in the substantia nigra ([1]; 2 mg/kg PO QD) | dopamine concentration in the substantia nigra ([1]; 10 mg/kg PO QD) | TH levels in the striatum ([2]; 10 mg/kg PO QD) | TH levels in the substantia nigra ([2]; 10 mg/kg PO QD) | TH levels in the striatum ([2]; 50 mg/kg PO QD) | TH levels in the substantia nigra ([2]; 50 mg/kg PO QD) | TH levels in substantia nigra [2] | TH levels in striatum [2] | Papp A→B at 2 h [3] [×10⁻⁶ cm/s] | Papp B→A at 2 h [3] [×10⁻⁶ cm/s] | efflux ratio at 2 h (MDR1) | dopamine concentration in the striatum ([1]; 50 mg/kg PO QD) | dopamine concentration in the substantia nigra ([1]; 50 mg/kg PO QD)
1 | Cc1cc(F)c(C(=O)Nc2cccc(-n3nnc4c3CCCC4)n2)cc1-n1cnc(C2CC2)c1 [Example 3, 5-(4-cyclopropyl-1H-imidazole-1-yl)-2-fluoro-4-methyl-N-(6-(4,5,6,7-tetrahydro-1H-benzo[d][1,2,3]triazole-1-yl)pyridine-2-yl)benzamide] | significantly increased | significantly increased | significantly higher than in the control group (G1) | significantly higher than in the control group (G1) | significantly higher than in the control group (G1) | significantly higher than in the control group (G1) | significant increase | significant increase | 67.3 ± 12.8 | 74.8 ± 12.3 | 1.13 | – | –
2 | Cc1cc(F)c(C(=O)Nc2cccc(-n3nnc4c3CCC4)n2)cc1-n1cnc(C2CC2)c1 [Example 2, 5-(4-cyclopropyl-1H-imidazole-1-yl)-N-(6-(5,6-dihydrocyclopenta[d][1,2,3]triazole-1 (4H)-yl)pyridine-2-yl)-2-fluoro-4-methylbenzamide] | – | – | – | – | – | significantly higher than in the control group (G1) | significant increase | significant increase | 93.2 ± 11.2 | 99.1 ± 16.8 | 1.06 | significantly increased | significantly increased
